# Laboratory results published in a melting point compilation (Tetko et al.; mined from patent text by program, amines drawn as free bases though some values may be those of a salt).
row,Compound,melting point [°C]
1,COc1ccc(-c2c3c(cc4ccc5c(c24)OCO5)C(=O)NC3=O)cc1,311 to 313
2,COc1cc(Oc2cccc(C(F)(F)F)c2)nc(C(=O)Nc2ccccc2)c1,131 to 133
3,CCOc1cc(Cl)ccc1-c1nc2n(C3CCCC3)[nH]c(CC)c-2c(=O)n1,185 to 187
4,COc1cc(C(=O)O)ccc1-c1nc2cc(Cl)c(Cl)cc2[nH]1,> 250
5,OC(c1ccc(Cl)cc1)(c1ccc(Cl)cc1)c1nccn1Cc1ccccc1,167 to 168
6,CC(C)(C)[C@H]1N(c2ccc(C#N)c3ccccc23)C(=O)[C@@H]2C[C@@H](O)CN21,155 to 157
7,Cc1cc(C#N)cc(C)c1Oc1nc(Nc2ccc(C#N)cc2)nc(C)c1Br,260 to 262
8,COc1ccc(N2C=Cc3cc(S(N)(=O)=O)sc3S2(=O)=O)cc1,90 to 92
9,CCn1nc(C)cc1N,95 to 96
10,CC(=O)N1CC(CCN2CC=C(c3c[nH]c4cc(Cl)ccc34)CC2)c2cc(C)ccc21 (stereo not given),179 to 181
11,CCCCCn1cc2cc(CCCC)oc2nc1=O,139 to 141
12,CCCCCCCCCOC1CCC(=O)N1 (stereo not given),46 to 48
13,OC(c1ccccc1)c1cccnn1 (stereo not given),130 to 135
14,Cc1oc(-c2ccccc2)nc1COc1ccc(CON=C(CCC(N)=O)c2ccccc2)cc1,110 to 112
15,CCCN1C(=O)c2ccccc2C1(O)c1ccc(F)cc1 (stereo not given),172 to 175
16,COc1ccc(N2C(=O)C3=C(SCCS3)C2O)cc1 (stereo not given),153 to 154
17,Cc1cccc(Nc2nc(Cl)nc(Cl)n2)c1C,186 to 188
18,O=C(O)C(CCN1C(=O)c2ccccc2C1=O)Oc1c(Br)cc(-c2ccc(-c3c(Cc4ccccc4)sc4ccccc34)cc2)cc1Br (stereo not given),113 to 115
19,COc1cccc(-c2ccc3cc(OC)ccc3c2Oc2ccc(C=O)cc2)c1,145 to 146
20,CC(C)c1ccc(NC(=O)N(C)C2N(C)C(c3ccc(F)cc3)=NC2(C(F)(F)F)C(F)(F)F)cc1 (stereo not given),203 to 204
21,Nc1ncc(CCCc2cccc3ccccc23)c(N)n1,179 to 181
22,CC(C)N(C(=S)Nc1ccccc1[N+](=O)[O-])C1CCN(CCc2ccccc2)CC1,101
23,CCCc1cc2nn(Cc3ccc(NC(=O)c4ccccc4S(=O)(=O)O)cc3)c(=O)n2c(C)n1,283 to 286
24,COC(=O)CS(=O)(=O)Cc1cccc(-c2nc(=O)c3ccccc3s2)n1,205 to 207

row,Compound,melting point [°C]
1,Cc1oc(-c2ccccc2)nc1COc1ccc(COc2ccc(OCc3ccccc3)cc2CC(=O)O)cc1,140 to 141
2,FC(F)(c1ccccc1)c1nc(-c2ccncc2)cs1,54.5 to 55.5
3,C=CC(C)(C)c1cc(CCC(=O)c2ccc(O)cc2)c(OC)cc1O,154
4,Cc1[nH]c(C(=O)NCCN2CCCCC2)c(C)c1-c1nc2ccc(C(=O)c3ccccc3)cc2[nH]1,230 to 237
5,CCN(CC)CCNc1ccc(C=O)c2sc3ccc(Br)cc3c(=O)c12,145 to 146
6,CCOC(=O)Cc1ccc(-c2nc(COc3ccc(COc4nn(-c5ccccc5)cc4/C=C/c4cn(CC)cn4)cc3OC)c(C)o2)cc1,140 to 141
7,CCCc1c(OCc2ccc(C=CC(=O)O)cc2)ccc(C(C)=O)c1O,203 to 204
8,Cc1ccc(CC(=O)O)s1,54
9,Clc1ccc(C2(Cn3cncn3)OCCO2)c(Cl)c1Cl,181
10,COc1c(NC(=O)c2c(F)cc(F)cc2F)cccc1C(=O)Nc1c(Cl)cc(C(F)(C(F)(F)F)C(F)(F)C(F)(F)F)cc1Br (stereo not given),179
11,Fc1ccccc1C1=CCC(=S)Nc2ccc(Cl)cc21,179 to 181
12,NC1CC(=O)N(Cc2ccccc2)C1=O (stereo not given),74 to 77
13,O=C(NCCCN1CCC(c2ccccc2)(c2ccccc2)CC1)N1CCOCC1c1ccc(F)c(F)c1 (stereo not given),71 to 74
14,O=C(NC1CCN(CCC2CCOc3ccccc32)CC1)C1CCc2ccccc2C1 (stereo not given),130 to 132
15,N#Cc1c(N2CCCCC2)cc(-c2cccc3ccccc23)c2c1-c1ccccc1C2=O,180 to 182
16,Cc1cc(Oc2ccc(NC(=O)c3ccccc3C(c3ccc(O)cc3)c3ccc(O)cc3)cn2)cc(C)c1Cl,125
17,N=C(N)NCCCCN[N+](=O)[O-],123 to 124
18,COc1cc(C(=O)O)ccc1OCCCO,162
19,COc1ccc(NC(=O)c2ccc([N+](=O)[O-])cc2)cc1,200
20,CC[C@H](C)[C@H](NC(=O)Nc1ccccc1C(F)(F)F)C(=O)N[C@H](CO)Cc1c[nH]c2ccccc12,232 to 234
21,CC(=O)N1N=C(c2ccc([N+](=O)[O-])c(C)c2)c2cc3c(cc2C=C1C)OCO3,115 to 116
22,COc1cc(NC(=O)C(C#N)=CNc2ccc(OC)c(Br)c2)c(Cl)cc1Cl,> 250
23,CCOC(=O)c1cnoc1-c1ccc(Br)cc1,47 to 48
24,CCc1[nH]n(-c2c(Cl)cc(C(=O)O)cc2Cl)c2nc(Cc3ccc(OC)cc3)nc(=O)c1-2,277

row,Compound,melting point [°C]
1,Clc1nnc(Cc2ccc(OCc3ccccc3)cc2)c2ccccc12,150 to 152
2,COC(=O)CCC(C#N)(CCC(=O)OC)c1ccc(OC)c(OC2CCCC2)c1,81 to 82
3,COc1ccc2c(Cc3ccco3)nnc(-c3ccccc3)c2c1,128 to 129
4,COC(=O)c1cc2cc(C=O)ccc2[nH]1,208
5,CC(C)(C#N)N1CCN(c2ccc(N3CC(CCC(N)=O)OC3=O)cc2F)CC1 (stereo not given),139 to 143
6,CCCCCn1ncc2c(N)c(C(N)=O)cnc21,201 to 202
7,CC(C)(C)C(=O)OCCN(CCOC(=O)C(C)(C)C)C(=O)COC(=O)C(C)(C)C,51.4
8,COc1cc(C(C)C)cc(OC)c1-c1nc(N)sc1CCC1CCCCC1,143
9,Nc1ccncc1Nc1cccc2cc[nH]c12,68 to 70
10,COc1ccc(OCC(O)CNC(C)(C)C)c(-c2ccc(=S)[nH]n2)c1 (stereo not given),188 to 190
11,CC#CCOc1cc(OCc2cccc(F)c2F)ncn1,84.9
12,COc1ccc(OC)c(CCc2ccc3ncn(C)c(=O)c3c2)c1,83 to 85
13,O=C(O)c1cc(OCCCCCCCCCCCCOc2ccccc2)ccc1OCc1ccccc1,85 to 87
14,Cc1nn(-c2ccccn2)c2ncc(C(=O)N(C)c3ccccc3)c(OCc3ccccc3)c12,92 to 93
15,Cc1cc(C(O)(C(F)(F)F)C(F)(F)F)cc(C)c1OCC(N)=O,180 to 182
16,CC1Cc2cc3c(cc2C(c2ccc([N+](=O)[O-])cc2)=NN1C(=O)CBr)OCO3 (stereo not given),183 to 186
17,CCOCc1cc2ccccc2oc1=Nc1ccc(Br)cc1,73 to 74
18,O=c1c2ccc(O)cc2oc2oc3cc(O)ccc3c12,> 300
19,COc1cc(C2c3cc4c(cc3C(NC3=CC(=O)N(Cc5ccc(NC(C)=O)cc5)C3=O)C3COC(=O)C23)OCO4)cc(OC)c1O[Si](C)(C)C(C)(C)C (stereo not given),177 to 179
20,Cc1oc(-c2cccs2)nc1CCOc1ccc([N+](=O)[O-])cn1,126
21,COc1ccc2c(c1OC)CCOC2CCl (stereo not given),63 to 65
22,CN(N(S(C)(=O)=O)S(C)(=O)=O)S(C)(=O)=O,123 to 124
23,O=C1Nc2cc(Cl)ccc2Sc2ccccc21,163 to 165
24,Cc1ccc(S(=O)(=O)OC[C@H]2CCC[C@H](OCc3c(Cl)cccc3Cl)O2)cc1 (relative stereo),123 to 124

row,Compound,melting point [°C]
1,C=C(C)C(=O)Nc1ccc(O)c(C(=O)O)c1,218
2,CC(C)(C)c1cc(CC(Cc2cc(C(C)(C)C)c(O)c(C(C)(C)C)c2)(Cc2cc(C(C)(C)C)c(O)c(C(C)(C)C)c2)[N+](=O)[O-])cc(C(C)(C)C)c1O,199 to 201
3,Cc1ccc(C2COc3cc(O)ccc3C2c2ccc(OCCN3CCCC3)cc2)cc1 (stereo not given),161 to 165
4,CS(=O)(=O)c1ccc(C(=O)Nc2ccc(-n3nc(C(F)(F)F)cc3C(F)(F)F)cc2)c(Cl)c1,219 to 220
5,CCCCn1c(=O)c2c(NC)n[nH]c2n(Cc2ccc(Cl)cc2)c1=O,292 to 294
6,CCCc1nn(-c2ccc(C(F)(F)F)cn2)cc1CCCOc1cc(CCC(=O)O)ccc1OC,147 to 148
7,O=C(O)Cn1nnnc1S,110 to 111
8,CCO[PH](=O)CN(C)c1cc(Oc2ccc(C(F)(F)F)cc2Cl)ccc1[N+](=O)[O-] (stereo not given),118 to 120
9,CCOC(=O)Cc1cnn(C)c1O,104 to 105
10,Cc1nc2cc(NC(=O)c3cc4cc(F)ccc4n3Cc3cccc(F)c3)cnc2n1C,274 to 275
11,CC(ON=c1c2nccc3cccc(c32)n2cccc12)C(=O)O (stereo not given),225
12,COc1cccc(OC)c1-c1cc(C(=O)NC2(C(=O)O)C3CC4CC(C3)CC2C4)nn1-c1ccc(C#N)c2ccccc12 (stereo not given),290
13,CS(=O)c1nsc(Cl)n1 (stereo not given),72
14,Nc1nc(Nc2ccc(SC3(Cl)C=CC(C(F)(F)F)=CN3)cc2)sc1C(=O)c1c(Cl)cc(C(F)(F)F)cc1Cl (stereo not given),130 to 132
15,CCCCCCOc1c2c(c(-c3ccc4c(c3)OCO4)c3c4c(ccc13)OCO4)C(=O)NC2=O,222 to 223
16,COc1cccc(-n2c(=O)c3c(c4cccnc42)OCC3)c1,> 260
17,CCC(CC)COc1ccc(-n2cc(C(=O)O)cn2)cc1C#N,180 to 182
18,CS(=O)(=O)c1ccc(-n2cc(-c3ccc(OC(F)(F)F)cc3)nc2-c2ccc(Cl)cc2)cc1,95 to 97
19,Cc1ccc(C=NC2CCN(c3cc4c(cc3F)c(=O)c(C(=O)O)cn4-c3ccc(F)cc3)C2)cc1 (stereo not given),233 to 234
20,COc1cc(N2CCN(C)CC2)ccc1-c1nc2c(N[C@H]3[C@@H](C(N)=O)[C@@H]4C=C[C@H]3C4)ccnc2[nH]1,185 to 195
21,Cc1nc(N2CCN(Cc3ccc(F)cc3)C2=O)sc1C(=O)NCc1cccnn1,222 to 225
22,Cc1ccc([N+](=O)[O-])c(CO)c1C,48 to 51
23,CCCc1cccc(C(C)(C)C)c1O,89 to 90
